In PubChem BioAssay (NCI) one finds TGI, GI50 and outcome data, which are given here for nine molecules.

Among the test systems are OVCAR-5 ovarian; HS 578T breast; SK-MEL-2 melanoma; M19-MEL melanoma; CAKI-1 renal; HOP-18 NSCLC; UO-31 renal; KM12 colon; SF-295 CNS; IGROV1 ovarian.
What all share (assay): inhibition of tumour cell growth, NCI panel, 48 h

Structures are written as SMILES. In brackets after ≈: the same amount, converted by molar mass. Several values for one entry are separate records, joined by “and”; a condition that tells them apart may be missing. Identical values can stand only once.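 1) Cells in 96-well plates. 2) Compound, 48 h, 5 concentrations. 3) Linear interpolation between surrounding doses. 4) Unreached endpoint = highest concentration. GI50 marks 50% less growth. At the TGI there is no net growth.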 Activity calls are given as the source filed them. No stated cut-off is given here; in the data, active means GI50 below about 0.43 µM; inactive means the rest.

On to `O=[N+]([O-])c1cc(C(F)(F)F)cc2n[se]nc12`, for which the TGI in the assay on OVCAR-5 ovarian was determined as 26.4 µM; in the assay on HS 578T breast, 75.6 µM; with SK-MEL-2 melanoma, 22.7 µM; in the assay on M19-MEL melanoma, 10.6 µM; in the assay with CAKI-1 renal, 9 µM; in the assay with HOP-18 NSCLC it was 8.96 µM. For the same molecule, the TGI with UO-31 renal was 14.1 µM; in the assay on KM12 colon, 20.3 µM; in the assay on SF-295 CNS, 25.8 µM; with IGROV1 ovarian it was 14.6 µM.
As for `COc1ccccc1/C=C1\CCC(CN2CCOCC2)C1=O` (stereo unspecified), the TGI is 33.7 µM in the assay on OVCAR-5 ovarian; over 100 µM in the assay with HS 578T breast; 32.2 µM in the assay with SK-MEL-2 melanoma; 18 µM with M19-MEL melanoma; 32.1 µM in the assay with CAKI-1 renal; 31.8 µM with HOP-18 NSCLC. Further, the TGI in the assay on UO-31 renal is 31.4 µM; in the assay on KM12 colon, 14.5 µM; in the assay with SF-295 CNS, 34.6 µM; with IGROV1 ovarian, 29.3 µM.
On to `CCCCCC1CC=CC(NC(=O)OCc2ccccc2)C1/C=C/CCCC1OCCO1` (stereo unspecified), for which the TGI with OVCAR-5 ovarian is over 100 µM; with SK-MEL-2 melanoma, over 100 µM; in the assay on M19-MEL melanoma, over 100 µM; in the assay with CAKI-1 renal it was over 100 µM; in the assay on HOP-18 NSCLC, over 100 µM; in the assay on UO-31 renal, 72.2 µM. For the same molecule, the TGI in the assay with KM12 colon, in the assay with SF-295 CNS and with IGROV1 ovarian was over 100 µM each time.
Consider `C=C1C(=O)O[C@H]2C3OC3(C)CC/C=C(/C(=O)OC)[C@@H](OC(C)=O)[C@H](OC(=O)C3(C)OC3C)[C@H]12` (stereo partly specified), for which the GI50 was 2.6 µg/mL (≈ 5.6 µM) in the assay with OVCAR-5 ovarian; 1.94 µg/mL (≈ 4.17 µM) in the assay with M19-MEL melanoma; 206 nM and 1.12 µM and 0.579 µg/mL with CAKI-1 renal; 2.29 µM and 2.04 µM and 2.66 µg/mL with UO-31 renal; 9.13 µM and 370 nM and 2.36 µg/mL in the assay on KM12 colon; 4.84 µg/mL (≈ 10.4 µM) in the assay on SF-295 CNS. Further, the GI50 with IGROV1 ovarian was 1.47 µM and 3.2 µM and 2.29 µg/mL. Also, the TGI was 8.82 µM and 4.66 µg/mL with OVCAR-5 ovarian; 24.4 µM with HS 578T breast; 5.17 µg/mL with M19-MEL melanoma; 478 nM and 2.35 µM and 1.57 µg/mL in the assay with CAKI-1 renal; 6.69 µM and 9.13 µM and 5.8 µg/mL with UO-31 renal; 1.64 µM and 7.08 µg/mL in the assay with KM12 colon. For the same molecule, the TGI was 14.8 µg/mL with SF-295 CNS; 3.17 µM and 14.6 µM and 5.62 µg/mL with IGROV1 ovarian. Besides, the outcome in the assay on HOP-18 NSCLC was inactive.
Turning to `CCCCCCCCCCCCCC(=O)NO`, the TGI in the assay on OVCAR-5 ovarian was over 74.1 µM; with SK-MEL-2 melanoma, 47.6 µM; with M19-MEL melanoma, 56.3 µM; with CAKI-1 renal, 52.4 µM; with HOP-18 NSCLC, 81.6 µM; in the assay on UO-31 renal, 25.3 µM. The TGI in the assay on KM12 colon was 47.2 µM; in the assay with SF-295 CNS, 60.9 µM; in the assay with IGROV1 ovarian, 38.3 µM.
For the molecule `COC(=O)/C(=N\Nc1nc(=S)[nH]n1N)C(C#N)c1ccc(Cl)cc1` (stereo unspecified), the TGI in the assay on OVCAR-5 ovarian, in the assay on SK-MEL-2 melanoma, in the assay with M19-MEL melanoma, in the assay on CAKI-1 renal, in the assay on HOP-18 NSCLC and with UO-31 renal was over 100 µM throughout. Further, the TGI with KM12 colon, in the assay with SF-295 CNS and in the assay on IGROV1 ovarian was over 100 µM throughout.
On to `CN(CO)c1nc(N(C)CO)nc(N(C)CO)n1`, for which the TGI is 63 µM and > 73.8 µM in the assay on OVCAR-5 ovarian; 55 µM and 78.3 µM with HS 578T breast; 32.1 µM and 11.2 µM in the assay with SK-MEL-2 melanoma; 17.2 µM in the assay on M19-MEL melanoma; 77.4 µM and 65.7 µM with CAKI-1 renal; over 55.6 µM in the assay on HOP-18 NSCLC. Moreover, the TGI is 50.3 µM and 56.2 µM in the assay with UO-31 renal; 47.7 µM and 31.8 µM in the assay on KM12 colon; over 73.4 µM in the assay on SF-295 CNS; 67.1 µM and 79.1 µM in the assay on IGROV1 ovarian. Besides, the GI50 was 21.4 µM with HS 578T breast; 15.5 µM and 5.47 µM in the assay with SK-MEL-2 melanoma; 26.9 µM in the assay on CAKI-1 renal; 27.6 µM in the assay with UO-31 renal; 16.1 µM with IGROV1 ovarian.
For `c1ccc(N2CCN(CCCN3CCc4c([nH]c5ccccc45)C3c3cccnc3)CC2)cc1` (stereo unspecified), the TGI with OVCAR-5 ovarian, in the assay with SK-MEL-2 melanoma, in the assay with M19-MEL melanoma, in the assay with CAKI-1 renal, in the assay with HOP-18 NSCLC and in the assay on UO-31 renal was over 100 µM throughout. Besides, the TGI with KM12 colon, with SF-295 CNS and with IGROV1 ovarian was over 100 µM in each case.
As to `CCC1=CCC(P(=O)(c2ccccc2)c2ccccc2)CC1C` (stereo unspecified), the TGI was over 100 µM in the assay on OVCAR-5 ovarian; 83.5 µM with SK-MEL-2 melanoma; over 100 µM in the assay on M19-MEL melanoma; over 100 µM in the assay on CAKI-1 renal; over 100 µM in the assay with HOP-18 NSCLC; 60.5 µM with UO-31 renal. The TGI in the assay with KM12 colon, with SF-295 CNS and with IGROV1 ovarian was over 100 µM throughout.
